These results are taken from US20240076272A1, “Activators of Heme Regulated Inhibitor Kinase (HRI)” (The Brigham and Women`s Hospital, Inc., priority 2019, published 2024).

Molecules are shown by their SMILES.

Series [1] concerns CHOP. Put plainly: Western blot, CHOP expression in CRL-2813 cells. In kind it is cell-based, human. Particulars: 5 μM, 8 hours, Western blot (FIG. 2B). Here is the method:
(§1) FIGS. 2A-2B show HRI activators of the present application induce eIF2α phosphorylation and modify its downstream effectors. In FIG. 2A, CRL-2813 cells were treated with 5 μM of each compound for 2 hours, cell lysates were probed with phosphorylated (P-eIF2α) and total eIF2α (T-eIF2α) and β-actin specific antibodies. In FIG. 2B, CRL-2813 cells were treated with 5 μM HRI activators for 8 hours and lysates were immunoblotted with antibodies against CHOP, p27^KiPl, cyclin D1 and β-actin.
(§2) Cells cultured under recommended media conditions were plated and maintained in serum-containing media without antibiotics in 14-cm plates (Nunc) until reaching 70% confluence. Cells were then treated with compounds for 6 h, washed with cold PBS once, and lysed with M-PER Mammalian Protein Extraction Reagent (Pierce) for 30 min on ice. The cell lysates were centrifuged at 12,000 RPM for 15 min and the supernatants were transferred to fresh tubes and the concentrations were determined by BCA (Pierce). Equal amount of proteins were mixed with Laemmli Sample Buffer, heated at 100° C. for 5 min, separated by SDS-PAGE, and probed with anti-phosphoserine-51-eIF2α (Phos-eIF2α), anti-total eIF2α-specific antibodies (Total-eIF2α) (Biosource International, Hopkinton, MA), anti-CHOP, anti-cyclin D1 or anti-actin (Santa Cruz Biotechnology, CA) using procedures substantially similar to previous reports (see e.g., Aktas et al, Mol. Cell. Biol. 17 (1997) 3850-3857).
(§3) Endogenous eIF2α is the best-known substrate of HRI and the upstream regulator of the eIF2·GTP·Met-tRNAi ternary complex abundance, while CHOP expression is a downstream effector of eIF2α phosphorylation. For assessing eIF2α phosphorylation, blotted cell lysates were treated for two hours with vehicle or selected compounds using antibodies specific for the total-eIF2α and the phosphorylated-eIF2α (T-eIF2α and [PhoS^51]-eIF2α), respectively (see e.g., Aktas et al, J. Nutr. 134 (2004) 2487S-2491S) (see FIG. 2A).
(A western blot detects proteins with antibodies after separation by electrophoresis.)

Series [2] deals with eIF2α phosphorylation (ATF-4 5′UTR luciferase reporter). The experiment in a line: surrogate eIF2α phosphorylation dual-luciferase reporter (DLR) assay. The class given is cell-based. From the text:
The dual luciferase expression vector and other plasmids used in the Examples provided herein have been previously reported (see e.g., Ziegeler et al, J. Biol. Chem. 285 (2010) 15408-15419). The dual luciferase surrogate eIF2α phosphorylation assay, has also been previously reported (see e.g., Chen et al, Nat. Chem. Biol. 7 (2011) 610-616). Briefly, a dual Renilla and Firefly luciferase mammalian reporter vector that transcribes both mRNAs from the same bi-directional enhancer/promoter complex was utilized for generation of surrogate eIF2α phosphorylation assay (see e.g., Ziegeler et al, J. Biol. Chem. 285 (2010) 15408-15419). Both mRNAs contained the same 90 nucleotide plasmid derived 5′UTR. In addition, 5′UTR of the Firefly luciferase open reading frame was fused in-frame to the 267 nucleotide ATF-4 5′UTR (see e.g., Chen et al, Nat. Chem. Biol. 7 (2011) 610-616).
Cells expressing firefly and renilla luciferases were assayed with a dual glow luciferase assay kit, per manufacturer's instruction (Promega Inc., Madison, WI). The data calculations were carried out as the ratio of firefly to renilla luciferase signal (see e.g., Ziegeler et al, J. Biol. Chem. 285 (2010) 15408-15419). Dose-response curves were obtained, and triplicate data points were fitted to the logistical sigmoidal model using nonlinear least-squares regression performed in GraphPad Prism 6.
All newly synthesized N,N′-disubstituted ureas were initially evaluated by testing in the surrogate eIF2α phosphorylation dual-luciferase reporter (DLR) assay (see e.g., Chen et al, Nat. Chem. Biol. 7 (2011) 610-616; and Ziegeler et al, J. Biol. Chem. 285 (2010) 15408-15419). Briefly, this assay takes advantage of the fact that activated HRI phosphorylates eIF2α which inhibits eIF2 guanine nucleotide exchange factor eIF2B, responsible for exchanging the GDP in the eIF2·GDP complex for GTP. The reduction in the recycling of eIF2·GDP into eIF2·GTP interferes with the formation of eIF2·GTP·Met-tRNAi ternary complex. […] These include mRNA coding for activating transcription factor 4 (ATF-4) (see e.g., Aktas et al, Oncotarget, 4 (2013) 1606-1617; Aktas et al, Oncotarget, 6 (2015) 6902-6914; and Aktas et al, Proc. Natl. Acad. Sci. U.S.A. 95 (1998) 8280-8285).
In the present assay, firefly (F) luciferase mRNA was fused to the 5′UTR of ATF-4 mRNA that had multiple uORFs, while renilla (R) luciferase mRNA was fused to a 5′UTR lacking any uORFs. Agents that reduce the amount of the eIF2·GTP·Met-tRNAi ternary complex, such as N,N′-disubstituted ureas that activate HRI, increase F luciferase expression while reducing the R luciferase expression, resulting in an increased F/R luciferase ratio. The ureas of the present application were tested at 10 μM, 5 μM, 2.5 μM, and 1.25 μM concentrations in 96-well assay plates (see e.g., Chen et al, Nat. Chem. Biol. 7 (2011) 610-616; and Bai et al, ChemBioChem, 14 (2013) 1255-1262). The activity scores as the F/R ratios were calculated for every compound-treated well and normalized to F/R ratio of vehicle-treated (DMSO) wells in the same plate, arbitrarily set at 1 (F/R=1). Data obtained in the surrogate dual-luciferase eIF2α phosphorylation (DLR) assay for the series of 1-phenyl-3/4-(4-trifluorometyl) phenoxy-cycloalkyl)ureas (4-CF3-ΦcAlkΦUs) and 1-phenyl-3-(5-(4-(trifluoromethyl) phenoxy)pyrimidin-2-yl)ureas (4-CF3-ΦOPyΦUs) described herein are shown in Tables 1-2.
(Reporter assays use an easily measured gene product as a stand-in for the process of interest.)

Series [3] has as its system human melanoma CRL-2813 cells. Put plainly: sulforhodamine B (SRB) cell proliferation assay. Particulars: Homo sapiens, CRL2813, 120 h, 5 days, read-out: IC50 (concentration that inhibits growth of human melanoma CRL-2813 cells by 50%). The class given is cell-based. Here is the method: Cells were seeded in 96-well plates and maintained for 5 days in the presence of 0.5 μM to 20 μM of individual compound, and cell proliferation was measured by the sulforhodamine B (SRB) assay according to previous reports (see e.g., Palakurthi et al, Cancer Res. 60 (2000) 2919-2925): briefly, at the end of a 5-day treatment, cells were fixed in 10% cold trichloroacetic acid. Cell number was estimated by measuring the remaining bound dye of sulforhodamine B after washing. The percentage of growth was calculated by using the equation: 100×[(T-T0)/(C-T0)], where T and C represent the absorbance in treated and control cultures at Day 5, and T0 at time zero, respectively. If T was less than T0, cell death had occurred and was calculated from 100×[(T-T0)/T0].
All 4-CF3-ΦOcAlkΦUs were tested in the sulforhodamine B (SRB) cell proliferation assay to establish the concentrations that inhibit human melanoma CRL-2813 cells growth by 50% (IC50) (see Table 1). This activity reflects a combined effect of membrane permeability and overall anti-proliferative effects that include on target and off-target effects.

The subject of series [4] is endogenous eIF2α. The experiment in a line: Western blot, phosphorylation of endogenous eIF2α in CRL-2813 cells. The class given is cell-based, human. The settings on record: 5 μM, 2 hours, Western blot (FIG. 2A). Here is the method:
as §1
Cells cultured under recommended media conditions were plated and maintained in serum-containing media without antibiotics in 14-cm plates (Nunc) until reaching 70% confluence. Cells were then treated with compounds for 6 h, washed with cold PBS once, and lysed with M-PER Mammalian Protein Extraction Reagent (Pierce) for 30 min on ice. The cell lysates were centrifuged at 12,000 RPM for 15 min and the supernatants were transferred to fresh tubes and the concentrations were determined by BCA (Pierce). […]

For series [5], the system named is cyclin D1. The experiment in a line: Western blot, cyclin D1 expression in CRL-2813 cells. In kind it is cell-based, human. The settings on record: 5 μM, 8 hours, Western blot (FIG. 2B). As for the experimental part: as §1, §2, §3

In general, melting point refers to the temperature of the solid-liquid transition.

For the compound `N#Cc1ccc(F)c(NC(=O)N[C@H]2CC[C@H](Oc3ccc(C(F)(F)F)cc3)CC2)c1` [Compound 6-VI, 1-(5-Cyano-2-fluorophenyl)-3-(trans-4-(4-(trifluoromethyl)phenoxy)cyclohexyl)urea], the melting point fell in the range of 234.6 to 237 °C. Also, the “expression of CHOP relative to DMSO” value in series [1] was “did not increase expression of CHOP”. In addition, the “activity in the DLR assay (in words)” value in series [2] was “inactive”. In addition, in series [2] (1.25 μM, F/R luciferase ratio normalized to DMSO wells (F/R=1), read-out: Fold stimulation of ATF-4 Surrogate eIF2α @ 1.25 μM), the fold induction at 1.25 µM was 1 ± 0.3. The fold induction at 5 µM in series [2] (5 μM, F/R luciferase ratio normalized to DMSO wells (F/R=1), read-out: Fold stimulation of ATF-4 Surrogate eIF2α @ 5 μM) worked out at 1.5 ± 0.5. In series [3], the IC50 is above 10 µM. For the same compound, in series [4], the “phosphorylation of endogenous eIF2α” value is given as “least active”. Besides, the “expression of cyclin D1 relative to DMSO” value in series [5] is reported as “did not inhibit the expression of cyclin D1”.
